Results on 64 molecules are retold here after a melting point compilation (Tetko et al.; mined from patent text by program, amines drawn as free bases though some values may be those of a salt).

Structures are written as SMILES. Some results are limits rather than exact numbers.

`CCN1CCN(Cc2ccc(CCn3cnc4cc(-c5ccc(Cl)cc5)sc4c3=O)cc2)C(=O)C1=O` showed a melting point of 285 to 288 °C.

Molecule `N#Cc1cc(C(=O)CBr)ccc1N` came in with a melting point of 162 to 165 °C.

`CCOC(=O)C1=Cc2cc(C=O)ccc2OC1C(F)(F)F` (centres undefined) had a melting point of 84.3 to 86.2 °C.

On to `CCN(CC)CCNC(=O)c1cnc2ccc(I)cc2c1F`, for which the melting point was in the range of 88 to 90 °C.

`CON1CCC2(CC1)C(O)=C(c1c(C)cc(C)cc1C)C(=O)N2CC1CC1` gave a melting point of 223 to 225 °C.

For the molecule `CCn1c2ccc(C(=O)CC(C)=O)cc2c2cc(C(=O)c3ccc(F)cc3C)ccc21`, the melting point stood at 132 °C.

For the molecule `Cc1ccc(-c2nn(-c3cccc4ccccc34)c(N)c2C(N)=O)cc1`, the melting point turned out to be 195 °C.

Molecule `Cc1ccc2c(c1)[C@H](Nc1nc(NC=O)nc(C(F)F)n1)[C@@H](C)C2` returned a melting point of 66 °C.

`CCOC(=O)c1cc(N=c2sc(=O)n3n2CCCC3)c(Cl)cc1Cl` gave a melting point of 81 to 83 °C.

`CN(c1cccc2cc(C3=NCC(CC(=O)N4CCOCC4)S3)[nH]c12)S(=O)(=O)c1cccs1` (centres undefined) showed a melting point of 173 to 174 °C.

`Brc1ccc(-c2ccc(-c3ccc(Br)cc3)o2)cc1`: the melting point was 198 to 199 °C.

For the molecule `CCOC(=O)/C=C/c1cc(-n2cnnn2)cc(C)c1N`, the melting point was in the range of 210 to 211 °C.

Turning to `CCOc1cc2c(cc1S(=O)(=O)NC(=O)NC)C(CNC(=O)c1cc(Cl)ccc1OC)CCO2` (centres undefined), the melting point was 207 to 208 °C.

The molecule `O=C(O)COc1ccc(C(=O)Nc2ccccc2Sc2ccccc2-c2nnn[nH]2)cc1` displayed a melting point of 252 to 253 °C.

The molecule `CCC1(CCO)OCCc2c1[nH]c1c(C)cccc21` (centres undefined) registered a melting point of 68 °C.

Consider `CC#CCOc1ccc(S(=O)C(C(=O)NO)c2ccccc2)cc1` (centres undefined), for which the melting point was determined as 55 °C.

`Clc1ccc2sc(Cl)nc2c1` returned a melting point of 70 °C.

Regarding `COC(=O)c1ccc(CN(C(=O)OC(C)(C)C)c2ccc(C3CCCCC3)cc2)cc1`, the melting point is 99.5 to 101 °C.

For `CCOc1cccc(-c2cn(C)cc(-c3ccccc3)c2=O)c1`, the melting point lay in the range of 133 to 135 °C.

For `CCn1cc(CN(C(=O)C2CCCc3c(O)cccc32)c2ccc(C(C)C)cc2)cn1` (centres undefined), the melting point was 212 to 215 °C.

With `Cn1c(C(F)(F)F)cc(=O)n(-c2ncc(Cl)cc2F)c1=O`, the melting point was in the range of 133 to 134 °C.

Take `Cc1ccc(-c2c(NS(=O)(=O)c3ccc(C(C)(C)COc4ncc(Br)cn4)cc3)ncnc2OCCOc2ncc(Br)cn2)cc1`: the melting point fell in the range of 156 to 158 °C.

Regarding `CCOc1c(C(=O)c2ccccc2)cnc2c1cnn2Cc1ccco1`, the melting point amounted to 70 °C.

Molecule `CCOC(=O)c1cc(-c2cc(OC)cc(OC)c2)ns1` displayed a melting point of 101 to 103 °C.

Consider `N#CC1(N2CCCCC2)CCCCC1`, for which the melting point lay in the range of 66 to 68 °C.

The molecule `NC(=O)C1(Nc2ccccc2)CCN(C2CCC(c3ccc(F)cc3)(c3ccc(F)cc3)CC2)CC1` showed a melting point of 224 to 227 °C.

Regarding `O=C(Nc1ccc(C(F)(F)F)cc1)NC1CCS(=O)(=O)CC1`, the melting point lay in the range of 196 to 198 °C.

As for `Cc1oc(-c2ccccc2)nc1CCOc1ccc(C[C@@H](C(=O)O)N2CCN(S(=O)(=O)c3ccccc3F)CC2)cc1`, the melting point was in the range of 170 to 172 °C.

Regarding `Cc1cccc(Cl)c1C(=O)N[C@@H](Cc1ccc(-c2c(C)n(C)c(=O)n(C)c2=O)cc1)C(=O)O`, the melting point fell in the range of 238 to 240 °C.

`O=C1CCOc2ccc(OCc3ccc4ccc(Cl)cc4n3)cc21` came in with a melting point of 163 to 164 °C.

For the molecule `O=[N+]([O-])c1cnn2c1-c1ccccc1NC2C1CCCCC1` (centres undefined), the melting point fell in the range of 150 to 152 °C.

`O=C1N(c2ccc(Br)cc2F)C(=S)C2CCCCC12O` (centres undefined) came in with a melting point of 163 to 164 °C.

For the molecule `COc1cc2c(cc1O)CCN(Cc1cccc(OC)c1OC)C2`, the melting point fell in the range of 101 to 102 °C.

For `O=C1NCCc2c(-c3ccccc3CCCO)[nH]c3cccc1c23`, the melting point is 234 °C.

In turn, `Nc1cc(N)c(Cl)cc1Cl` came in with a melting point of 138 to 141 °C.

As for `CNS(=O)(=O)CCc1ccc2[nH]cc(CCN=Cc3ccccc3)c2c1`, the melting point was 146 to 148 °C.

Molecule `CC(C)C[C@@H](C=NNC(N)=O)NC(=O)[C@H](Cc1c[nH]cn1)NC(=O)C(Cc1ccccc1)Cc1ccccc1` had a melting point of 111 to 115 °C.

Turning to `Fc1ccc(Nc2ccnc3cc(Cl)ccc23)cc1`, the melting point was 214 to 216 °C.

`COc1cc2c(cc1C(=O)c1cc(C(C)(C)C)c(O)c(C(C)(C)C)c1)CCC2` yielded a melting point of 154 to 156 °C.

For `CN(CCO)Cc1cc(NC(=N)c2cccs2)ccc1C1CCCC1`, the melting point lay within 116 to 118 °C.

`CSc1ccc(-c2nn(Cc3cccnc3)c(=O)cc2-c2ccc(F)cc2)cc1`: the melting point was 160 to 161 °C.

As for `O=C(c1ccc(F)cc1)c1ccc([N+](=O)[O-])cc1Cl`, the melting point fell in the range of 83 to 84 °C.

`CCn1c(=O)c2c(nc(/C=C/c3ccc(OCCCCN)cc3)n2C)n(CC)c1=O`: the melting point was 212 to 214 °C.

Turning to `c1ccc(CN[C@H]2CCCN[C@H]2c2ccc(-c3ccccc3)cc2)cc1` (relative stereo), the melting point is greater than 268 °C.

The molecule `Cc1cc(F)cnc1Cl` yielded a melting point of 38 to 40 °C.

As to `NC1COc2ccccc2NC1=O` (centres undefined), the melting point was 65 to 70 °C.

Turning to `COc1ccc(-c2coc3cc(OCC4CO4)ccc3c2=O)cc1OC` (centres undefined), the melting point was in the range of 161 to 162 °C.

Turning to `C=CCN(CCC12CC3CC(CC(C3)C1)C2)C(=O)NCCCc1ccncc1`, the melting point lay in the range of 99 to 102 °C.

On to `CC[C@H](COCC#Cc1ccccc1)n1cnc2c(N)nc3ccccc3c21`, for which the melting point was in the range of 63 to 67 °C.

The molecule `CN(C)C1(c2cccc(F)c2)CCC(=CC(=O)NCCCc2ccccc2)CC1` (centres undefined) displayed a melting point of 129 to 131 °C.

Regarding `Clc1ccc(CCCN2CCc3cc(OC[C@H]4CO[C@](Cn5ccnc5)(c5ccc(Cl)cc5)O4)ccc3C2)cc1` (racemic), the melting point fell in the range of 101 to 103 °C.

Take `O=S(=O)(c1ccc(Cl)cc1)C(CCCCCCO)c1cc(F)ccc1F` (centres undefined): the melting point was 77 to 79 °C.

Molecule `C=CCn1c(=O)c(OC)nn(-c2cccc(NC(C)=O)c2)c1=O` returned a melting point of 72 to 73 °C.

On to `Oc1c2c(nn1-c1ccccn1)CCCc1ccccc1-2`, for which the melting point is 80 to 81 °C.

The molecule `O=S(CCl)c1ncc(Cl)cn1` (centres undefined) yielded a melting point of 90 °C.

In turn, `C#CC(C)(C)OC(C)Oc1ccc(NC(=O)N(C)C)cc1Cl` (centres undefined) displayed a melting point of 99 to 101 °C.

Regarding `O=C(Nc1ccccc1)c1ccc(F)c(NC(=S)Nc2cc(Cl)cc(Cl)c2)c1`, the melting point was 173 to 175 °C.

`CCCCCCCCCCCCCCOc1cccc(C(=O)Cl)c1` had a melting point of 26 to 27 °C.

For the molecule `CC12CC(=O)C3C(CCC4CC=CCC43C)C1CCC2=O` (centres undefined), the melting point fell in the range of 188 to 192 °C.

`O=c1[nH]c2occc2c2ccccc12` gave a melting point of 216 to 218 °C.

As to `O=C1Cc2cc(CCN3CCC(c4noc5cc(F)ccc45)CC3)ccc2N1`, the melting point lay in the range of 199 to 204 °C.

Molecule `CSC1=Nc2ccccc2C2=NCC(Cn3ccnc3)N12` (centres undefined) gave a melting point of 97 to 99 °C.

Molecule `O=[N+]([O-])c1c(NCCO)cc(NCCO)cc1NCCO` registered a melting point of 200 °C.

In the case of `COC(=O)NCCc1ccc(C(=O)OC)c(S(N)(=O)=O)c1`, the melting point is 146 to 149 °C.
